Consider four compounds from patent publication US10245261B2, “Substituted indol-5-ol derivatives and their therapeutic applications” (NantBioScience, Inc., priority 2013, dated 2019).

Structures are written as SMILES.

Data set [1] concerns SC LOX IMVI Melanoma Xenografts. Description: SC LOX IMVI Melanoma Xenografts model in nude mice. Type of data set: in vivo, mouse. As to conditions: 50 mg/kg intraperitoneal. As for the experimental part:
The in vivo anti-tumor efficacy of Compound 53 has been studied using SC LOX IMVI Melanoma Xenografts model in nude mice (FIG. 76). This was a subcutaneous early stage experiment (defined as a median tumor staging size less than 200 mg). Compound 53 or vehicle control was administered by Intraperitoneal injection for various days with different doses.

The subject of data set [2] is U251 human CNS tumor xenograft. Description: U251 human CNS tumor xenograft model in nude mice. As to conditions: 60 mg/kg intraperitoneal. The class given is in vivo, mouse. As for the experimental part: The in vivo anti-tumor efficacy of Compound 53 has been studied using U251 human CNS tumor xenograft model in nude mice (FIG. 16). This was a subcutaneous early stage experiment (defined as a median tumor staging size less than 200 mg). Compound 53 or vehicle control was administered by Intraperitoneal injection for various days with different doses. […] Compound 53 was well tolerated at this doses with maximum body weight lose 3.4%.

Data set [3] has as its system AN3 human endometrial carcinoma xenograft. Description: Endometrial carcinoma xenograft. The class given is in vivo, mouse.
A short description of data set [4]: Plasma concentration after oral dosing in MV4-11 tumor-bearing mice (LCMS). The class given is in vivo. As to conditions: SCID, mouse, 24 hour after single oral 50 mg/kg. As for the experimental part: (§1) The mice carrying the established MV4-11 tumor xenografts (tumor volume around 150 mm^3) were given an oral dose of 50 mg/kg NTW-3456. At 0, 1, 2, 8, 16, 24 hours after dosing, three were euthanized. The blood samples were collected and plasma was prepared with centrifuge for LCMS assay. And the tumors were harvested, homogenized in lysis buffer, immunoprecipitated with anti-FLT3 antibody FIG. 33.
(§2) The curve (solid dot) is the plot of plasma concentration-time profiles of NTW-3456 after oral administration of 50 mg/kg.

Data set [5] deals with Panc-1 pancreatic carcinoma. Nature of the data set: Panc-1 model of pancreatic carcinoma. The class given is in vivo, mouse. The note with it: with or without Abraxane.
For data set [6], the system named is FLT3 phosphorylation (pFLT3) of MV4-11 tumors. Nature of the data set: FLT3 phosphorylation in MV4-11 tumor xenografts after oral dosing. The note with it: Mus musculus, 24 hour after single oral 50 mg/kg. Type of data set: in vivo. As for the experimental part: as §1, §2
The next data set deals with Fgr(h) (Homo sapiens, UniProt P09769). Nature of the data set: KinaseProfiler kinase assay. The class given is biochemical.
Another data set has as its target JNK2α2(h) (Homo sapiens, UniProt P45984). Nature of the data set: KinaseProfiler kinase assay. The class given is biochemical.
For a further data set, the target named is PIP5K1γ(h) (Homo sapiens, UniProt O60331). Description: KinaseProfiler kinase assay. The class given is biochemical.
The target of the next data set is Lck(h) (Homo sapiens, UniProt P06239). Description: KinaseProfiler kinase assay. Type of data set: biochemical.
In the next data set the target is CaMKIIδ(h) (Homo sapiens, UniProt Q13557). Nature of the data set: KinaseProfiler kinase assay. Type of data set: biochemical.
The next data set deals with CK1(y). Nature of the data set: KinaseProfiler kinase assay. The class given is biochemical, yeast.
Data set [7] deals with PI3 Kinase (p110β/p85α)(h) (Homo sapiens, UniProt P42338). Description: KinaseProfiler kinase assay. The class given is biochemical.
A further data set deals with CLK2(h) (Homo sapiens, UniProt P49760). Nature of the data set: KinaseProfiler kinase assay. Type of data set: biochemical.
The next data set deals with CK1γ1(h) (Homo sapiens, UniProt Q9HCP0). Description: KinaseProfiler kinase assay. The class given is biochemical.
In data set [8] the target is PI3 Kinase (p110α(H1047R)/p85α)(h) (Homo sapiens, UniProt P42336, H1047R). Nature of the data set: KinaseProfiler kinase assay. Type of data set: biochemical.
Another data set deals with PKA(h) (Homo sapiens, UniProt P17612). Nature of the data set: KinaseProfiler kinase assay. The class given is biochemical. In short, it runs like this:
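Each enzyme was assayed radiometrically: 40 min room-temperature reaction with [γ-33P]ATP and 10 mM Mg acetate, acid-stopped, filtered, scintillation-counted.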

The next data set deals with PI3KC2α(h) (Homo sapiens, UniProt O00443). Nature of the data set: KinaseProfiler kinase assay. The class given is biochemical.
PI3KC2α(h), sequence (O00443 whole entry): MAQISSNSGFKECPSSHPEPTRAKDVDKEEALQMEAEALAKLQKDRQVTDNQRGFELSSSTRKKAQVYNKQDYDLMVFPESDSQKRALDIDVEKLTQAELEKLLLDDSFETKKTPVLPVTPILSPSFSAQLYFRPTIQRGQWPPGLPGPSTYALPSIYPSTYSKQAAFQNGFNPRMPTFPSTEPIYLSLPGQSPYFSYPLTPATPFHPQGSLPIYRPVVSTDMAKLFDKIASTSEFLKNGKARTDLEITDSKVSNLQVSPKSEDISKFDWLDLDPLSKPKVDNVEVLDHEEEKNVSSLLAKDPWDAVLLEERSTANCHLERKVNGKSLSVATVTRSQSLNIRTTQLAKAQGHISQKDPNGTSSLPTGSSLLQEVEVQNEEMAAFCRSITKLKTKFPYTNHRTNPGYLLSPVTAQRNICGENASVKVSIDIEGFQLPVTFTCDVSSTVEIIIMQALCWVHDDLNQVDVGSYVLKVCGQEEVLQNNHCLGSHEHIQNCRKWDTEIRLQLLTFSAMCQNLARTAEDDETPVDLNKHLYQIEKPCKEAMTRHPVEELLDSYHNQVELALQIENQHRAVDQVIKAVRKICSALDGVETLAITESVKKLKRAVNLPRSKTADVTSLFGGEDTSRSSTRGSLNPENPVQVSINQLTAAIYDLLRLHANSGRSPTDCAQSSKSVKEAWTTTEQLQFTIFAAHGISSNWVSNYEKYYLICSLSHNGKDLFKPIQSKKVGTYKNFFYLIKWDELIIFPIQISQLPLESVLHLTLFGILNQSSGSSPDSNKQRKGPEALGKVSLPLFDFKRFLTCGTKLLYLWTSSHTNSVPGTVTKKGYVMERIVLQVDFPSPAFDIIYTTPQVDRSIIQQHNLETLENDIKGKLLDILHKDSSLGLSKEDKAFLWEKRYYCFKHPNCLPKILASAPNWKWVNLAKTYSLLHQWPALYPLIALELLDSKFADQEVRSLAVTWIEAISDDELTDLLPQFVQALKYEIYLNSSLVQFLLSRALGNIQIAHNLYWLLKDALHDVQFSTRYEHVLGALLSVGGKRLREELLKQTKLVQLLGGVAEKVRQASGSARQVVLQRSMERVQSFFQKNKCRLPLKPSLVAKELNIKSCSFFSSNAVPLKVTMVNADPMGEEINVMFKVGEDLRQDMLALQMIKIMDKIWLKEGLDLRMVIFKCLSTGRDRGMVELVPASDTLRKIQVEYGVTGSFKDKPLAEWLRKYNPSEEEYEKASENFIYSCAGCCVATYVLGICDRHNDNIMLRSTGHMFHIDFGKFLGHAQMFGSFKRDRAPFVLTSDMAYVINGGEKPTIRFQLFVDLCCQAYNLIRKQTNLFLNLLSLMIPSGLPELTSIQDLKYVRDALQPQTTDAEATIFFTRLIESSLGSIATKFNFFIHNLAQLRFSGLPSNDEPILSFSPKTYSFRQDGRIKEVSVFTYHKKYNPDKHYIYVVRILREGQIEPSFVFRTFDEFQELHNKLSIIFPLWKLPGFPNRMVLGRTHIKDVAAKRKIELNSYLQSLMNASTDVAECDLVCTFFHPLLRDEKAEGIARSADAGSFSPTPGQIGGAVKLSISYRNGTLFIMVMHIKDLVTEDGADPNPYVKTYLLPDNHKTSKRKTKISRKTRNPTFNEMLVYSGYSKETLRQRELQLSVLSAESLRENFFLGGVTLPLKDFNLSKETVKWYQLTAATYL

CLK2(h), sequence (P49760 whole entry): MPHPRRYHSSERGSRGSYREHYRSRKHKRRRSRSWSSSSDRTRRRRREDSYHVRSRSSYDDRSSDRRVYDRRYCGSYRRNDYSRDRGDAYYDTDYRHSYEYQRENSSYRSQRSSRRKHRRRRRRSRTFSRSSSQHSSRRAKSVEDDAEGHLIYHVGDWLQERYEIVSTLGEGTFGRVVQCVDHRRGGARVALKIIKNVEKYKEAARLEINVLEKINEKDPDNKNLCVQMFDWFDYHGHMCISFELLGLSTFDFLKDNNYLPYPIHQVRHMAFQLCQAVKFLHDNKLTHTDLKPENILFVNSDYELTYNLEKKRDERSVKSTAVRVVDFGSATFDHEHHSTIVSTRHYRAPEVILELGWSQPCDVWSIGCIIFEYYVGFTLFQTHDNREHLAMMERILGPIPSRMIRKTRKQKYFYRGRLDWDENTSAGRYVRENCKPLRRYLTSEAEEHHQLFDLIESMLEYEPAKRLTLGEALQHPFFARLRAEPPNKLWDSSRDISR
PI3 Kinase (p110α(H1047R)/p85α)(h), sequence (P42336 whole entry H1047R): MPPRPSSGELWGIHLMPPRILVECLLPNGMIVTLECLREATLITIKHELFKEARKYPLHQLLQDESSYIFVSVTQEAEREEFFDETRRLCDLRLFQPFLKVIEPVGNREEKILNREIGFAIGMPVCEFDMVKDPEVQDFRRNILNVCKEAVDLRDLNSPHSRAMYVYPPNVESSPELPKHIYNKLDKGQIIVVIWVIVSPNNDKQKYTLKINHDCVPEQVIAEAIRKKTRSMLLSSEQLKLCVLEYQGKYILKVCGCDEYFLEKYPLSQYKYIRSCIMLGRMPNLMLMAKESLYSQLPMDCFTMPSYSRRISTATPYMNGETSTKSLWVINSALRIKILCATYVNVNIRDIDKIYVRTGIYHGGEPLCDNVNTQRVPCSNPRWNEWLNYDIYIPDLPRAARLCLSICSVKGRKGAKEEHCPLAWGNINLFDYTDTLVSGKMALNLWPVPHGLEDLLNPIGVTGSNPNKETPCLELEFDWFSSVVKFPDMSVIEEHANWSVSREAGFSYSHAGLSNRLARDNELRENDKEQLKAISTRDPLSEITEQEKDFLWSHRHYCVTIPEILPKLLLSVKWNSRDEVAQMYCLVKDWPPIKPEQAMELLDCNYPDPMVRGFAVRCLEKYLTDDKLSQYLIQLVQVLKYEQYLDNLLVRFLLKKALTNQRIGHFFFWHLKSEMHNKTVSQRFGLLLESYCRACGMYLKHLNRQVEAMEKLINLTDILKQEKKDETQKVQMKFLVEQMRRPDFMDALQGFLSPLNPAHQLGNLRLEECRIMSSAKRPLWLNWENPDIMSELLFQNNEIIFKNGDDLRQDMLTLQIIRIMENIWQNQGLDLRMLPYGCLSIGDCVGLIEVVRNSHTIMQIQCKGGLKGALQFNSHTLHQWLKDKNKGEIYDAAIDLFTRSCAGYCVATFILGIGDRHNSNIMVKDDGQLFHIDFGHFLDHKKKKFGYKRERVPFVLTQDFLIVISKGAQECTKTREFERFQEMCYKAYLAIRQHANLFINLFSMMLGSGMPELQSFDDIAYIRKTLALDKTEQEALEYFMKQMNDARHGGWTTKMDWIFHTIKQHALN
PI3 Kinase (p110α(H1047R)/p85α)(h), sequence (P27986 whole entry partner): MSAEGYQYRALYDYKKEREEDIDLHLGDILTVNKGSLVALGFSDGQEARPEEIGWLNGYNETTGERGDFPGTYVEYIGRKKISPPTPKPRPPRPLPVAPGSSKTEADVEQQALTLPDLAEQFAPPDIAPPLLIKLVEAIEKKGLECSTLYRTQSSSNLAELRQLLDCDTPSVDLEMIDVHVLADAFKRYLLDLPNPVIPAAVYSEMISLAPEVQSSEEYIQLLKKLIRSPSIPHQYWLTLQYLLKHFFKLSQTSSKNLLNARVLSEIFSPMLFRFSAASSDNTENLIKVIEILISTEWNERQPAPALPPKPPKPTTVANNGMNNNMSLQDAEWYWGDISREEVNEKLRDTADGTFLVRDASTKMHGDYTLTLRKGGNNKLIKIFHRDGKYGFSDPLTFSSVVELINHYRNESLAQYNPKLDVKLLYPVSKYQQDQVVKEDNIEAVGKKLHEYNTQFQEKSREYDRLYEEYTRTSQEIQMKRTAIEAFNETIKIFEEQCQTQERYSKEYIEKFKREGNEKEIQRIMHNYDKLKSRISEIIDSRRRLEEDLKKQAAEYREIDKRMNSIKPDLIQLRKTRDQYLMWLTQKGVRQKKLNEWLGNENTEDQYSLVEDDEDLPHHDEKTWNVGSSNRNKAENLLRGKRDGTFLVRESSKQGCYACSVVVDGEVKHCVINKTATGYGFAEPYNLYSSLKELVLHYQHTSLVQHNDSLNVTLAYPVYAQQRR
Fgr(h), sequence (P09769 whole entry): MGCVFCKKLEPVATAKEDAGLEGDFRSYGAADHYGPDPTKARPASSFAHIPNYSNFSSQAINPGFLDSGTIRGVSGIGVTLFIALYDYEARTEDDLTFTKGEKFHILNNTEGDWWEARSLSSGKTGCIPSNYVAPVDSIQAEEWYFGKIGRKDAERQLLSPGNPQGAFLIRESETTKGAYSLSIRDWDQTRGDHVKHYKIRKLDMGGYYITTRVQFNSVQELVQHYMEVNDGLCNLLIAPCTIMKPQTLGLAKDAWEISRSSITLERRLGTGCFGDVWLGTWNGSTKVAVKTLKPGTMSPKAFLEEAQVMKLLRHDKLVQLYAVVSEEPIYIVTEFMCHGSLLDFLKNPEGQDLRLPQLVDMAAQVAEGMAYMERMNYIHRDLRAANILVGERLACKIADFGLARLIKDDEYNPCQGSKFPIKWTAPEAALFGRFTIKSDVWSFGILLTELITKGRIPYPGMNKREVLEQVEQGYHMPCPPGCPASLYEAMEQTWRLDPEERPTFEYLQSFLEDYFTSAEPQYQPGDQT
Lck(h), sequence (P06239 whole entry): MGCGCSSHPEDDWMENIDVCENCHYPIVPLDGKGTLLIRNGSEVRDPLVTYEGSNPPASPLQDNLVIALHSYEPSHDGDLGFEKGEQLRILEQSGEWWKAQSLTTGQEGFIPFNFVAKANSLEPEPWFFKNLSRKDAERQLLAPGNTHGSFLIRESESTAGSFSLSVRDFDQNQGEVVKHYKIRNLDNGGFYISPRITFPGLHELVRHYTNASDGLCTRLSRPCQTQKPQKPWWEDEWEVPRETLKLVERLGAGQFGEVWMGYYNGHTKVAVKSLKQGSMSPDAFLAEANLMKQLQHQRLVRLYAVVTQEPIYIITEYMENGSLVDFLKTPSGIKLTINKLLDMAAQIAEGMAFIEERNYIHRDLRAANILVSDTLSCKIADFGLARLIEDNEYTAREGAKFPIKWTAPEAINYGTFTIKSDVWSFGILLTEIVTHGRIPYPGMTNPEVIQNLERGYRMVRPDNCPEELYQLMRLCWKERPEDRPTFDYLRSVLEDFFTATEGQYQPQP

Take `C/C=C/c1cc(Nc2cc(N3CCN(C)CC3)nc(Oc3ccc4[nH]c(C)cc4c3F)n2)n[nH]1` [Compound 53]: the “maximum body weight lose” value in data set [1] (QDx4) is listed as 10.3%; in data set [2] (Q2Dx3) it was 3.4%. In addition, the “treat/control (T/C)” value was found to be 21% in [1] (QDx4, day 13) and 40% in data set [2] (Q2Dx3, day 30).

Consider `C/C=C/c1cc(Nc2cc(N3CCN(C)CC3)nc(Oc3cc(F)c4[nH]c(C)cc4c3F)n2)n[nH]1` [NTW-3456], for which the anti-tumor effect result in data set [3] was “significant anti-tumor activity”. The concentration at 24 h in data set [4] came out at 7 nM. Moreover, the anti-tumor activity entry in [5] is “significant anti-tumor activity”. Also, the inhibition at 50 mg/kg in data set [6] was over 60%.

With `Cc1cc2c(F)c(Oc3nc(Nc4cc(C5CC5)[nH]n4)cc(N4CCN(C)CC4)n3)ccc2[nH]1` [Compound 10], the inhibition at 0.1 µM was 97% at Fgr(h); -20% against JNK2α2(h); -8% on PIP5K1γ(h); 99% against Lck(h); -6% on CaMKIIδ(h); 0% in [7]. The inhibition at 0.1 µM was 29% on CLK2(h); -4% against CK1γ1(h); -8% in data set [8]; 2% on PKA(h); 15% against PI3KC2α(h). In the data set on CK1(y), the “% inhibition @ 0.1 μM” value came to 17%.

`Cc1cc2c(F)c(Oc3nc(Nc4cc(C5CC5)[nH]n4)cc(N4CCNCC4)n3)ccc2[nH]1` [Compound 11, N-(5-cyclopropyl-1H-pyrazol-3-yl)-2-((4-fluoro-2-methyl-1H-indol-5-yl)oxy)-6-(piperazin-1-yl)pyrimidin-4-amine]: the inhibition at 0.1 µM on Fgr(h) was 100%; on JNK2α2(h) it was -16%; at PIP5K1γ(h) it was -5%; against Lck(h) it was 98%; against CaMKIIδ(h), 6%; in [7], -1%. For the same compound, the inhibition at 0.1 µM at CLK2(h) is -3%; at CK1γ1(h), -10%; in data set [8], -1%; at PKA(h) it was -12%; on PI3KC2α(h), -5%. For the same compound, in the data set on CK1(y), the “% inhibition @ 0.1 μM” value is listed as 4%.
